In publication PMC10392864, “Chukrasia tabularis limonoid plays anti-inflammatory role by regulating NF-κB signaling pathway in lipopolysaccharide-induced macrophages” (Food & Nutrition Research, 2023):
Where “and” joins values, the source holds several entries; their conditions need not be identical. Equal values may be shown once.

How the values were obtained:
[1] = Cytotoxicity, SRB method, A549; assay type: cell-based, human; details: human, A-549 (lung) cells
Description: (§1) Huh-7 (hepatoma), MCF-7 (human breast), KB (oral epithelial), Hela (cervical), H460 (lung), A-549 (lung), and HepG2 (hepatocellular) cancer cell lines (provided by Shanghai Cell Bank) were maintained in RPMI 1640 at 37 ℃, supplemented with 10% FBS. Cytotoxicity was determined by the SRB method, with 5-fluorouracil (5-FU) as a positive control. The IC50 value was calculated using the GraphPad prism program.

IKBα = experiment: Western blot, IKBα in LPS-treated macrophages; assay type: cell-based; details: Fig. 4
Description: (§2) Western blot analysis was performed to observe the activities of limonin 2 on NF-κB P65, JAK, STAT, IKBα, IKKα, iNOS and eNOS protein levels. Macrophages were dispersed in 6 well plates for 24 h. After incubation, the cells were processed by HFPS and treated with LPS for 24 h. After treatment, cells were harvested and lysed. Western blot analysis was based on the methods described previously ([24]).
(§3) The NF-κB signaling cascade plays an important role in the adjustment of inflammation ([43], [44]). The expression of NF-κB P65, IKB, and IKKα were measured by Western blot to investigate the anti-inflammatory mechanism of limonin 2. […] Limonin 2 inhibited the phosphorylation and degradation of IKBα (Fig. 4A, D and E) and IKKα (Fig. 4A, F and G).

[2] = Cytotoxicity, SRB method, H460; assay type: cell-based, human; details: human, H460 (lung) cells
Description: as §1

IL-6 = IL-6 production in LPS-induced macrophages, ELISA; assay type: cell-based; details: compound 2 at 2.3 and 9.2 μmol/L, LPS 1 μg/mL, 24 h, Fig. 3C
Description: (§4) After 8 h of pre-incubation under 5% CO2 at 37°C, limonin 2 was added to the well plate, respectively, for 12 h. Then the cell of administration group and model group were induced with LPS (2 µg/mL) and the control group was treated with DMSO as contrast. The cell supernatants of samples were collected to detect the content of IL-6 and TNF-α by ELISA according to manufacturer protocol. And the normal range of IL-6 and TNF-αELISA kits is 3.75–120 pg/mL and 20–640 pg/mL, respectively.
(§5) Fig. 3 Effects of compound 2 on the production of TNF-α, NO and IL-6 in LPS-induced macrophages. The macrophages were incubated with LPS (1 μg/mL) and treated with compound 2 (2.3 and 9.2 μmol/L) for 24 h. Indomethacin (INM) was used as the positive control. (A) The levels of TNF-α, (B) NO, and (C) IL-6 in the supernatant were assayed using ELISA kits. All values given are the mean ± SEM. *P <0.05, **P <0.01 compared with the LPS group.

RAW264.7 cells = experiment: RAW264.7 cell viability, SRB assay; assay type: cell-based
Description: The cytotoxicity of limonin 2 to RAW264.7 cells was detected by SRB assay. […] Therefore, compound 2 of 0–20 μm was used in subsequent experiments to avoid the influence of cytotoxic and anti-inflammatory effect detection.
Fig. 2 Effect of compound 2 on RAW264.7 cells viability. RAW264.7 cells were treated by assigned concentration of compound 2 or DMSO for 24 h. The data are expressed as the mean ± SEM (n = 3). The cells viability (%) = (ODcompound 2 – ODDMSO)/ODDMSO ×100. *P < 0.05,**P < 0.01 compared with control cells treated by DMSO. Statistical differences were analyzed by unpaired t-test.

STAT3 = experiment: Western blot, STAT3 in LPS-treated macrophages; assay type: cell-based; details: LPS-treated RAW264.7 cells, Fig. 5
Description: as §2
(§6) To study the effect of limonin 2 on the STAT signaling cascades of LPS-treated macrophage, the levels of JAK2 and STAT3 was measured ([45]).

[3] = Cytotoxicity, SRB method, HepG2; assay type: cell-based, human; details: human, HepG2 (hepatocellular) cells
Description: as §1

[4] = Cytotoxicity, SRB method, Hela; assay type: cell-based, human; details: human, Hela (cervical) cells
Description: as §1

eNOS = experiment: Western blot, eNOS in LPS-treated macrophages; assay type: cell-based; details: LPS-stimulated macrophages, Fig. 6
Description: as §2
(§7) To study the effect of limonin 2 on eNOS signaling cascade on LPS treated macrophages ([46]), the level of eNOS was measured. The upregulation of iNOS expression in LPS-treated macrophage was observed (Fig. 6A and B). Compound 2 inhibited the expression of iNOS stimulated by LPS in macrophage. At the same time, downregulation of eNOS protein expression was also found in LPS-stimulated macrophages (Fig. 6A and C).

[5] = test system: LPS-induced NO production in RAW264.7 cells; experiment: LPS-induced NO production in RAW264.7 cells (Griess reaction); assay type: cell-based
Description: The inhibitory activities of compounds 1–16 on LPS stimulated macrophages was determined by Griess reaction. The NO content was detected by the NO kit according to the protocol described earlier ([23]). RAW264.7 cells obtained from the China Center for Cultivated Studies (Shanghai, China) were maintained in DMEM containing 10% FBS, and under 5% CO2 at 37°C. Briefly, the cells were seeded in a 96-well plate (1 × 10^5 cells/well), after 8 h of pre-incubation under 5% CO2 at 37°C, compounds 1–16 were added to the well plate, respectively, for 12 h. […] The supernatant of the cell culture were collected 24 h later.

[6] = Cytotoxicity, SRB method, KB; assay type: cell-based, human; details: human, KB (oral epithelial) cells
Description: as §1

[7] = Cytotoxicity, SRB method, MCF-7; assay type: cell-based, human; details: human, MCF-7 (human breast) cells
Description: as §1

JAK2 = experiment: Western blot, JAK2 in LPS-treated macrophages; assay type: cell-based; details: LPS-treated RAW264.7 cells, Fig. 5
Description: as §2, §6

[8] = Cytotoxicity, SRB method, Huh-7; assay type: cell-based, human; details: human, Huh-7 (hepatoma) cells
Description: as §1

TNF-α = TNF-α production in LPS-induced macrophages, ELISA; assay type: cell-based; details: compound 2 at 2.3 and 9.2 μmol/L, LPS 1 μg/mL, 24 h, Fig. 3A
Description: as §4, §5

NF-κB p-P65 = experiment: Western blot, NF-κB p-P65 in LPS-treated macrophages; assay type: cell-based; details: Fig. 4
Description: as §2, §3

iNOS = experiment: Western blot, iNOS in LPS-treated macrophages; assay type: cell-based; details: Fig. 6
Description: as §2, §7

IKKα = experiment: Western blot, IKKα in LPS-treated macrophages; assay type: cell-based; details: Fig. 4
Description: as §2, §3

IC50 ([5]; Mus musculus, RAW264.7 cells, LPS 2 µg/mL, supernatant after 24 h, read-out: IC50, inhibitory activity on LPS-induced NO production in RAW264.7 cells): 4.58 ± 0.72 µM
Structure (SMILES): CCC(=O)OC1C2(O)C(OC(=O)C=CC(C)C)C3(C)CC24OC2(C)OC15C1CC(=O)OC(C6=CC(O)OC6=O)C1(C)CCC5(O2)C4(C)C3CC(=O)OC (centres unmarked) [Compound 2, Chukrasin F]
IC50 [1]: 54.7 ± 10.1 µM
phosphorylation and degradation of IKBα (in words) (IKBα): inhibited
IC50 [2]: 60.8 ± 6.96 µM
production of IL-6 in LPS-treated macrophages (in words) (IL-6): notably inhibited
viability of RAW264.7 cells (in words) (RAW264.7 cells; compound 2 at 0–20 μm, within 24 h): not notably affected
relative survival rate of RAW264.7 cells (RAW264.7 cells; limonin 2 at 5 ~ 200 μM (seven rising concentrations, not listed singly), 24 h, SRB): 100.7% and 96.3% and 93.9% and 88.0% and 76.4% and 64.4% and 56.7%
expression level of STAT3 (in words) (STAT3): notably reduced
IC50 [3]: 69.4 ± 10.6 µM
IC50 [4]: 33.2 ± 8.41 µM
eNOS protein expression (in words) (eNOS): completely restored
production of NO in LPS-treated macrophages (in words) ([5]; compound 2 at 2.3 and 9.2 μmol/L, LPS 1 μg/mL, 24 h, Fig. 3B): notably inhibited
IC50 [6]: 39.2 ± 2.17 µM
IC50 [7]: 23.4 ± 5.81 µM
expression level of JAK2 (in words) (JAK2): notably reduced
IC50 [8]: 72.1 ± 13.5 µM
production of TNF-α in LPS-treated macrophages (in words) (TNF-α): notably inhibited
expression of NF-κB p-P65 (in words) (NF-κB p-P65): downregulates
expression of iNOS stimulated by LPS (in words) (iNOS): inhibited
phosphorylation and degradation of IKKα (in words) (IKKα): inhibited
